Common to all, as to experiment: DTP human tumour cell line panel, 48 h
The subject of test [1] is SNB-19 CNS.
Test [2] concerns SK-OV-3 ovarian.
Test [3] relates to MALME-3M melanoma.
Test [4] relates to SK-MEL-2 melanoma.
Test [5] deals with CCRF-CEM leukemia.
Test [6] concerns UACC-62 melanoma.
The test system of test [7] is OVCAR-3 ovarian.
Test [8] relates to SK-MEL-28 melanoma.
The test system of test [9] is SF-295 CNS.
Test [10] concerns RPMI-8226 leukemia.

The structures appear in SMILES notation.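 Cultured in 96-well plates, cells were exposed to test compound for 48 hours across five concentrations. GI50 is the concentration that inhibits growth by half. TGI is the concentration that stops growth completely.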

As to `CN(C)c1ccc(-c2nc(N)nc3c2CCCC3)cc1`, the total growth inhibition concentration (TGI) in test [1], in test [2], in test [3], in test [4], in [5] and in [6] was greater than 100 µM throughout. Besides, the TGI was 96.7 µM in test [7], greater than 100 µM in [8], greater than 100 µM in [9] and greater than 100 µM in test [10].

For `CCOC(=O)CCC(NC(=O)c1ccc(Oc2nc3cc(N)cc(N)c3nc2-c2ccccc2)cc1)C(=O)OCC` (stereo not given), the GI50 in test [1] was 31.6 µM; in test [2], 27.9 µM; in [3] it was 18.5 µM; in test [4], 40.7 µM; in [5], 12.4 µM; in test [6] it was 16.1 µM. Further, the GI50 is 16.2 µM in [7], 14.3 µM in test [8], 40.6 µM in [9] and greater than 100 µM in [10]. The concentration for total growth inhibition (TGI) was greater than 100 µM in [1]; 97.7 µM in test [2]; 35.2 µM in test [3]; greater than 100 µM in test [4]; greater than 100 µM in [5]; 31 µM in test [6]. Further, the TGI was 41.2 µM in test [7], 30.5 µM in test [8], greater than 100 µM in test [9] and greater than 100 µM in [10].

For the molecule `Cc1nc2ccccc2c(/C=C/c2ccc(F)cc2)c1C(=O)/C=C/c1ccccc1`, the GI50 was 1.88 µM in test [1]; 4.72 µM in test [2]; 2.18 µM in test [3]; 3.22 µM in test [4]; 2.44 µM in test [5]; 1.86 µM in test [6]. The GI50 in [7] is 1.57 µM; in [8], 2.36 µM; in [9], 4.72 µM; in [10], 1.87 µM. The TGI in [1] was 4.02 µM; in test [2] it was greater than 100 µM; in [3] it was 5.03 µM; in test [4] it was 15.8 µM; in test [5], greater than 100 µM; in test [6], 4.04 µM. Besides, the TGI was 3.12 µM in test [7], 5.67 µM in test [8], greater than 100 µM in test [9] and 5.95 µM in test [10].

Take `Cc1ccc(S(=O)(=O)NC(=O)Nc2ncn[nH]2)cc1`: the TGI in test [1], in [2], in test [3], in test [4], in test [5] and in [6] was greater than 100 µM in each case. The TGI in test [7], in test [8], in [9] and in test [10] was greater than 100 µM each time.

Turning to `Cc1ccccc1-c1cc(=O)c2cc(C)c(C)c(C(=O)O)c2o1`, the TGI in [1], in test [2], in test [3], in test [4], in test [5] and in [6] was greater than 100 µM throughout. The total growth inhibition concentration (TGI) in test [7], in [8], in test [9] and in [10] was greater than 100 µM each time.

Turning to `NNC(=S)N/N=C(\c1nc2ccc(Cl)cc2[nH]c1=O)C(O)c1cccc([N+](=O)[O-])c1` (stereo not given), the concentration for total growth inhibition (TGI) in test [1], in test [2], in test [3], in test [4], in test [5] and in test [6] was greater than 100 µM throughout. Further, the TGI was greater than 100 µM in test [7], greater than 79.4 µM in [8], greater than 100 µM in test [9] and greater than 63.7 µM in test [10].

Turning to `COc1cc(Br)c(C=Nc2cccc3ccc(OS(=O)(=O)c4ccc([N+](=O)[O-])cc4)cc23)cc1OC`, the TGI in test [1], in test [2], in test [3], in [4], in test [5] and in test [6] was greater than 100 µM in each case. Moreover, the total growth inhibition concentration (TGI) in test [7], in [8], in [9] and in [10] was greater than 100 µM throughout.

Turning to `COc1cccc(C2=C(c3cn(C)c4c(C)cccc34)C(=O)NC2=O)c1`, the GI50 is greater than 25 µM in test [1]; greater than 25 µM in test [2]; greater than 25 µM in [3]; greater than 16.9 µM in test [4]; greater than 25 µM in [5]; greater than 22.1 µM in test [6]. The GI50 is 16.5 µM in test [7], greater than 25 µM in test [8], 17.4 µM in test [9] and greater than 25 µM in test [10]. In addition, the total growth inhibition concentration (TGI) in test [1], in test [2], in test [3], in test [4], in [5] and in [6] was greater than 25 µM each time. Besides, the TGI in test [7], in [8], in test [9] and in test [10] was greater than 25 µM in each case.

Usually TGI stands for the concentration at which net growth stops. Read a low TGI as greater sensitivity of the cells. A word on the GI50: it is the concentration that inhibits growth by half.
